Data on five molecules can be found in PubChem BioAssay AID1963439 (Molecular Pharmacology Branch, DTP, NCI, 2024).

SMILES strings stand for the structures. Where “and” joins values, the source holds several entries; their conditions need not be identical. Identical values can stand only once. Bounds are passed on as bounds.

For this assay, the system named is NCI-H196 complex spheroids with HUVEC/MSC, growth % T/C. The experiment in a line: Anticancer human tumor NCI-H196 cell line growth inhibition [Asc].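 For all read-outs here: spheroids exposed to compound for 7 days before measurement.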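 For viability, T/C: 100% = DMSO vehicle control wells.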 As to conditions: for viability, T/C: stronger effect = lower value. The essentials: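 Complex solid-tumor spheroids incorporating human endothelial and mesenchymal stem cells received single agents or combinations over half-log dilution ranges anchored to clinical Cmax.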

The mark [1] stands for this setting: curve of first compound, second compound 0.03 µM.
[2] abbreviates: curve of first compound, second compound 0.0949 µM.
The mark [3] stands for this setting: curve of first compound, second compound 0.3 µM.
The mark [4] stands for this setting: curve of first compound, second compound 0.949 µM.
Setting [5] is: curve of first compound, second compound 3 µM.
Where [6] appears, read: second compound 0.03 µM, first compound 0.00316 µM.
Where [7] appears, read: second compound 0.03 µM, first compound 0.01 µM.
The mark [8] stands for this setting: second compound 0.03 µM, first compound 0.0316 µM.
The mark [9] stands for this setting: second compound 0.03 µM, first compound 0.1 µM.
[10] abbreviates: second compound 0.0949 µM, first compound 0.00316 µM.
The mark [11] stands for this setting: second compound 0.0949 µM, first compound 0.01 µM.
Setting [12] is: second compound 0.0949 µM, first compound 0.0316 µM.
The mark [13] stands for this setting: second compound 0.0949 µM, first compound 0.1 µM.
The mark [14] stands for this setting: second compound 0.3 µM, first compound 0.00316 µM.
Setting [15] is: second compound 0.3 µM, first compound 0.01 µM.
Setting [16] is: second compound 0.3 µM, first compound 0.0316 µM.
Where [17] appears, read: second compound 0.3 µM, first compound 0.1 µM.
Where [18] appears, read: second compound 0.949 µM, first compound 0.00316 µM.
Where [19] appears, read: second compound 0.949 µM, first compound 0.01 µM.
Setting [20] is: second compound 0.949 µM, first compound 0.0316 µM.
Setting [21] is: second compound 0.949 µM, first compound 0.1 µM.
[22] abbreviates: second compound 3 µM, first compound 0.00316 µM.
Where [23] appears, read: second compound 3 µM, first compound 0.01 µM.
Setting [24] is: second compound 3 µM, first compound 0.0316 µM.
The mark [25] stands for this setting: second compound 3 µM, first compound 0.1 µM.

The term IC50 denotes the point on the concentration scale where inhibition reaches its midpoint. Broadly, the viability, T/C is the ratio of treated to control. Take `NC1CCC(NC2CC2c2ccccc2)CC1` (centres undefined) + CCN1C(C(=O)NC23CCC(C(=O)O)(CC2)CC3)C(c2cccc(Cl)c2F)C2(C(=O)Nc3cc(Cl)ccc32)C12CCCCC2: the IC50 by setting is: under setting [1], more than 100 nM; under setting [2], more than 100 nM; under setting [3], more than 100 nM; under setting [4], more than 100 nM; under setting [5], more than 100 nM. Further, the viability, T/C is 109% (second compound 0.03 µM, first compound 0.000316 µM); 98% (second compound 0.03 µM, first compound 0.001 µM); 109% under setting [6]; 110% under setting [7]; 105% under setting [8]; 96.7% under setting [9]. Moreover, the viability, T/C was 102% (second compound 0.0949 µM, first compound 0.000316 µM); 108% (second compound 0.0949 µM, first compound 0.001 µM); 111% under setting [10]; 103% under setting [11]; 100% under setting [12]; 105% under setting [13]. For the same molecule, the viability, T/C reads like this: (second compound 0.3 µM, first compound 0.000316 µM) 118%; (second compound 0.3 µM, first compound 0.001 µM) 117%; under setting [14], 108%; under setting [15], 105%; under setting [16], 97.8%; under setting [17], 119%. Also, the viability, T/C was 111% (second compound 0.949 µM, first compound 0.000316 µM); 121% (second compound 0.949 µM, first compound 0.001 µM); 112% under setting [18]; 114% under setting [19]; 115% under setting [20]; 119% under setting [21]. Moreover, the viability, T/C is, setting by setting: (second compound 3 µM, first compound 0.000316 µM) 119%; (second compound 3 µM, first compound 0.001 µM) 123%; under setting [22], 112%; under setting [23], 104%; under setting [24], 115%; under setting [25], 112%.

Turning to `NC1CCC(NC2CC2c2ccccc2)CC1` (centres undefined), the viability, T/C is 103% and 108% and 100% (compound 0.000316 µM); 93.8% and 106% and 108% (compound 0.001 µM); 108% (2×) and 97.2% (compound 0.00316 µM); 93% and 98.4% and 103% (compound 0.01 µM); 99.4% and 105% and 114% (compound 0.0316 µM); 92.6% and 112% and 92.1% (compound 0.1 µM). For the same molecule, the IC50 (curve of compound) is more than 100 nM.

Turning to `Cn1ncnc1[C@H]1c2n[nH]c(=O)c3cc(F)cc(c23)N[C@@H]1c1ccc(F)cc1`, the viability, T/C by setting is: (compound 0.000316 µM) 97.9% and 107% and 106%; (compound 0.001 µM) 104% and 97.1% and 99.2%; (compound 0.00316 µM) 99.5% and 100% and 104%; (compound 0.01 µM) 104% and 102% and 98%; (compound 0.0316 µM) 100% (2×) and 96.9%; (compound 0.1 µM) 98.8% and 96% and 88.3%. Moreover, the IC50 (curve of compound) was more than 100 nM.

Consider `COc1c(OCCCN2CCOCC2)ccc2c3n(c(=NC(=O)c4cnc(N)nc4)nc12)CCN3` + CCN1C(C(=O)NC23CCC(C(=O)O)(CC2)CC3)C(c2cccc(Cl)c2F)C2(C(=O)Nc3cc(Cl)ccc32)C12CCCCC2, for which the IC50 was more than 1000 nM under setting [1]; more than 1000 nM under setting [2]; more than 1000 nM under setting [3]; more than 1000 nM under setting [4]; more than 1000 nM under setting [5]. For the same molecule, the viability, T/C is 101% under setting [6]; 106% under setting [7]; 91% under setting [8]; 77.1% under setting [9]; 68.8% (second compound 0.03 µM, first compound 0.316 µM); 52.1% (second compound 0.03 µM, first compound 1 µM). In addition, the viability, T/C reads like this: under setting [10], 117%; under setting [11], 99.6%; under setting [12], 98.5%; under setting [13], 82.8%; (second compound 0.0949 µM, first compound 0.316 µM) 72.7%; (second compound 0.0949 µM, first compound 1 µM) 52.2%. Also, the viability, T/C is 110% under setting [14]; 102% under setting [15]; 106% under setting [16]; 83.1% under setting [17]; 73.3% (second compound 0.3 µM, first compound 0.316 µM); 59.7% (second compound 0.3 µM, first compound 1 µM). The viability, T/C runs as follows: under setting [18], 103%; under setting [19], 109%; under setting [20], 94.9%; under setting [21], 85.7%; (second compound 0.949 µM, first compound 0.316 µM) 66.9%; (second compound 0.949 µM, first compound 1 µM) 57.3%. In addition, the viability, T/C is 113% under setting [22]; 106% under setting [23]; 105% under setting [24]; 81.2% under setting [25]; 73.1% (second compound 3 µM, first compound 0.316 µM); 54.2% (second compound 3 µM, first compound 1 µM).

With `Cc1nc(N2CCC3(CC2)COC(C)C3N)c(CO)nc1Sc1ccnc(N)c1Cl` (centres undefined) + CNC(C)C(=O)NC1CN(S(=O)(=O)c2cccc(S(=O)(=O)N3CCC4CCC(C(=O)NC(c5ccccc5)c5ccccc5)N4C(=O)C(NC(=O)C(C)NC)C3)c2)CCC2CCC(C(=O)NC(c3ccccc3)c3ccccc3)N2C1=O, the IC50 by setting is: (curve of first compound, second compound 0.01 µM) less than 9.49 nM; (curve of first compound, second compound 0.0316 µM) less than 9.49 nM; (curve of first compound, second compound 0.1 µM) less than 9.49 nM; (curve of first compound, second compound 0.316 µM) less than 9.49 nM; (curve of first compound, second compound 1 µM) less than 9.49 nM. Further, the viability, T/C (second compound 0.01 µM, first compound 0.00949 µM) is 11%; the viability, T/C (second compound 0.01 µM, first compound 0.03 µM) was 7.94%; the viability, T/C (second compound 0.01 µM, first compound 0.0949 µM) is 5.15%; the viability, T/C (second compound 0.01 µM, first compound 0.3 µM) was 6.8%; the viability, T/C (second compound 0.01 µM, first compound 0.949 µM) was 6.64%; the viability, T/C (second compound 0.01 µM, first compound 3 µM) was 6.64%. In addition, the viability, T/C (second compound 0.0316 µM, first compound 0.00949 µM) was 4.39%; the viability, T/C (second compound 0.0316 µM, first compound 0.03 µM) was 3.45%; the viability, T/C (second compound 0.0316 µM, first compound 0.0949 µM) was 4.36%; the viability, T/C (second compound 0.0316 µM, first compound 0.3 µM) is 3.89%; the viability, T/C (second compound 0.0316 µM, first compound 0.949 µM) was 4.66%; the viability, T/C (second compound 0.0316 µM, first compound 3 µM) was 4.54%. For the same molecule, the viability, T/C is 3.47% (second compound 0.1 µM, first compound 0.00949 µM); 3.41% (second compound 0.1 µM, first compound 0.03 µM); 4.81% (second compound 0.1 µM, first compound 0.0949 µM); 3.67% (second compound 0.1 µM, first compound 0.3 µM); 3.69% (second compound 0.1 µM, first compound 0.949 µM); 3.62% (second compound 0.1 µM, first compound 3 µM). Moreover, the viability, T/C is, setting by setting: (second compound 0.316 µM, first compound 0.00949 µM) 3.86%; (second compound 0.316 µM, first compound 0.03 µM) 6.04%; (second compound 0.316 µM, first compound 0.0949 µM) 2.84%; (second compound 0.316 µM, first compound 0.3 µM) 2.59%; (second compound 0.316 µM, first compound 0.949 µM) 3.03%; (second compound 0.316 µM, first compound 3 µM) 3.1%. The viability, T/C reads like this: (second compound 1 µM, first compound 0.00949 µM) 4.12%; (second compound 1 µM, first compound 0.03 µM) 2.58%; (second compound 1 µM, first compound 0.0949 µM) 2.94%; (second compound 1 µM, first compound 0.3 µM) 2.39%; (second compound 1 µM, first compound 0.949 µM) 2.12%; (second compound 1 µM, first compound 3 µM) 1.83%.
